# Several values for one entry are separate records, joined by “and”; a condition that tells them apart may be missing. Equal values may be shown once. Entries after “also recorded” stand apart in the source; their conditions may differ.
# Assays:
# [1] = system: patients with advanced non-small cell lung cancer (NSCLC); settings: cited from earlier work
# [2] = system: patients with various cancers with cachexia; settings: 50 mg once per day, cited from earlier work
# [3] = system: patients with NSCLC-Cachexia; test: Romana 2: randomized, double-blind, placebo-controlled phase 3 study of anamorelin HCl; format: in vivo, human
# Text: Example 2 Anamorelin HCL in the Treatment of Non-Small Cell Lung Cancer—Cachexia (NSCLC-C): A Randomized, Double-Blind, Placebo-Controlled, Multicenter, Phase III Study to Evaluate the Safety and Efficacy of Anamorelin Hcl in Patients with NSCLC-C(Romana 2)
# (§1) Key features of the Romana 2 study are as follows: • DESIGN: randomized, double-blind, placebo-controlled, multicenter, phase 3 study to evaluate the safety and efficacy of anamorelin HCl (anamorelin) in patients with NSCLC-Cachexia (59 sites; 15 countries) • PRIMARY ENDPOINT: Lean body mass (LBM) by DXA • SECONDARY ENDPOINTS: • Key: pooled overall survival, Anorexia/Cachexia sub-domain, Fatigue sub-domain, Simplified Evaluation of Appetite (SEA), and Simplified Evaluation of Fatigue (SEF) • Other: Body weight, study specific overall survival, FAACT/FACIT-F trial outcome index (TOI) and total scores, additional LBM analyses • EXPLORATORY ENDPOINTS: Hunger Assessment Scale (HAS), Karnofsky (KPS), responder analyses; Population pharmacokinetics (PK) in 90 patients • STUDY POPULATION: advanced NSCLC (unresectable Stage III or IV) and cachexia (≥5% body weight within 6 months or screening BMI<20 kg/m^2) • SAMPLE SIZE: 495 patients; randomization ratio 2:1 (anamorelin:placebo) • DOSING: placebo or 100 mg anamorelin for 12 weeks • SAFETY ASSESSMENTS: Adverse events (AEs), labs, vitals, ECGs
# healthy subjects [4] = settings: 50 or 75 mg doses; after 6 days; cited from earlier work
# [5] = system: patients with various cancers and cachexia; settings: 50 mg once per day; cited from earlier work
# [6] = system: patients with NSCLC-Cachexia; test: Romana 1: randomized, double-blind, placebo-controlled phase 3 study of anamorelin HCl; format: in vivo, human; settings: for Fatigue Domain of FACIT-F, change from baseline, subgroup / Simplified Evaluation of Fatigue (SEF), change from baseline, subgroup: MITT
# Text: Example 1 Anamorelin HCl in the Treatment of Non-Small Cell Lung Cancer—Cachexia (NSCLC-C): A Randomized, Double-Blind, Placebo-Controlled, Multicenter, Phase III Study to Evaluate the Safety and Efficacy of Anamorelin HCl in Patients with NSCLC-C(Romana 1)
# as §1, with “Romana 1” for “Romana 2”, “SIZE: 484” for “SIZE: 495”
# healthy subjects [7] = settings: cited from earlier work
# [8] = system: patients with cancer anorexia-cachexia syndrome; settings: cited from earlier work
# [9] = system: patients with advanced cancer and cachexia; settings: after 4 weeks; cited from earlier work
# [10] = ITT population, 100 mg anamorelin for 12 weeks, LBM by DXA
# [11] = ITT population, over 12 weeks, 100 mg
# [12] = MITT population, over 12 weeks, 100 mg
# [13] = anamorelin treatment for 12 weeks
# [14] = MITT population, 12-week study period, anamorelin vs. placebo
compound,measurement,setting,value
CN(C)N(C)C(=O)[C@@]1(Cc2ccccc2)CCCN(C(=O)[C@@H](Cc2c[nH]c3ccccc23)NC(=O)C(C)(C)N)C1 [anamorelin],Average weight gain from baseline to week 12,[1]; 100 mg once daily,statistically significant average weight gain
same,IGFBP-3 as compared to placebo,[1]; 50 or 100 mg once daily,statistically significant increases
same,MD Anderson Symptom Inventory (MDASI) scores,[1]; 50 or 100 mg once daily,the improvement was not significant
same,ASAS scores,[2],improved
same,Fat mass decrease vs. placebo,[2],the difference did not reach statistical significance
same,Quality of life as measured by the FACIT-F test,[2],No significant effects
same,Scale weight measures,[2],no corresponding increase
same,Levels of IGF-1,"[2]; weeks 4, 8, and 12",significantly increased
same,Levels of IGFBP-3,"[2]; weeks 4, 8, and 12",significantly increased
same,Lean body mass compared to placebo,[2]; weeks 4 and 8,significantly increased
same,Total body mass compared to placebo,[2]; weeks 4 and 8,significantly increased
same,"Lean Body Mass, median change from baseline over 12 weeks",[3]; [10],0.75
same,"Lean Body Mass, median treatment difference (anamorelin vs. placebo)",[3]; [11],1.71
same,FAACT TOI and total score (cachexia concerns),[3]; MITT population,trending benefit
same,FACIT-F TOI and total score,[3]; MITT population,No benefit
same,SEF score vs. placebo,"[3]; MITT population, 12-week study period",overall small trend of improvement; also recorded: not statistically different from placebo
same,"Anorexia/Cachexia Domain, Treatment Difference (anamorelin vs. placebo), LS Mean (SE)",[3]; [12],2.14 (0.676)
same,"Body Weight, Treatment Difference (anamorelin vs. placebo), LS Mean (SE)",[3]; [12],1.53 (0.327) kg
same,"Body Weight, overall change from baseline, LS Mean (SE)",[3]; [12],0.95 (0.386) kg
same,"FAACT Anorexia/Cachexia Domain, change from baseline, LS Mean (SE)",[3]; [12],3.48 (0.944)
same,"SEA Score, Treatment Difference (anamorelin vs. placebo), LS Mean (SE)",[3]; [12],0.66 (0.283)
same,"SEA Score, change from baseline, LS Mean (SE)",[3]; [12],1.08 (0.400)
same,"FACIT-F fatigue score, subgroup","[3]; MITT, BMI less than or equal to 18.5",maintained a steady score after Week 3
same,"FACIT-F fatigue score, subgroup","[3]; MITT, ECOG of 2",general trend of improvement
same,"SEF score, subgroups","[3]; MITT, concomitant opioid use and BMI≤18.5",Specific improvements
same,"FACIT-F fatigue score, subgroup","[3]; MITT, concomitantly taking opioids, after Week 3",did not experience as severe of a decline in score as those in the placebo group
same,"FACIT-F fatigue score, subgroup","[3]; MITT, patients under the age of 65, after Week 3",did not experience as severe of a decline in score as those in the placebo group
same,Tolerability,[3]; [13],well tolerated
same,Concerns related to weight and body image (FAACT),[3]; in vivo,an improvement
same,Percentage of change in LBM,[3]; in vivo,consistent increases
same,"Symptoms of early satiety and appetite (individual FAACT questions), change from baseline over time",[3]; in vivo,showed an improvement
same,Body weight gain versus placebo,healthy subjects [4],significant dose-related weight gain
same,Appetite as measured by BACRI-7,[5],no significant difference
same,Body weight compared with placebo,[5],significantly increased
same,Enjoyment from eating (BACRI-7),[5],significantly more patients reported greater enjoyment from eating
same,FACIT-F scores,[5],significantly increased
same,Food intake,[5],increased but not significantly
same,GH levels,[5],significantly increased
same,IGF-1 levels,[5],significantly increased
same,IGFBP-3 levels,[5],significantly increased
same,Patient-reported appetite as measured by ASAS,[5],significantly improved
same,"Lean Body Mass, median change from baseline over 12 weeks",[6]; [10],1.10 kg
same,"Lean Body Mass, median treatment difference (anamorelin vs. placebo)",[6]; [11],1.54 kg
same,"FAACT TOI, overall treatment difference",[6]; [14],2.86±1.161
same,"FAACT Total, overall treatment difference",[6]; [14],2.67±1.459
same,"FACIT TOI, overall treatment difference",[6]; [14],1.90±1.358
same,"FACIT Total, overall treatment difference",[6]; [14],2.07±1.651
same,"Anorexia/Cachexia Domain, Treatment Difference (anamorelin vs. placebo), LS Mean (SE)",[6]; [12],2.21 (0.617)
same,"Body Weight, Treatment Difference (anamorelin vs. placebo), LS Mean (SE)",[6]; [12],2.07 (0.325) kg
same,"Body Weight, overall change from baseline, LS Mean (SE)",[6]; [12],2.20±0.3 kg and 2.20 (0.326) kg
same,"FACIT-F Fatigue Domain, change from baseline, LS Mean (SE)",[6]; [12],0.26 (0.886)
same,"SEA Score, Treatment Difference (anamorelin vs. placebo), LS Mean (SE)",[6]; [12],0.65 (0.262)
same,"SEA Score, change from baseline, LS Mean (SE)",[6]; [12],1.57 (0.317)
same,"SEF Score, Treatment Difference (anamorelin vs. placebo), LS Mean (SE)",[6]; [12],0.33 (0.265)
same,"SEF Score, change from baseline, LS Mean (SE)",[6]; [12],0.11 (0.309)
same,"Fatigue Domain of FACIT-F, change from baseline, subgroup","[6]; BMI>18.5, Week 3 to 12",smaller improvement trend
same,"Simplified Evaluation of Fatigue (SEF), change from baseline, subgroup",[6]; BMI≤18.5 (statistically significant at Week 3 and 6),improvement trend over 12 Weeks
same,"Fatigue Domain of FACIT-F, change from baseline, subgroup","[6]; ECOG 0-1, Week 3, 6, 9 to 12",gap increase between placebo and anamorelin
same,"Fatigue Domain of FACIT-F, change from baseline, subgroup","[6]; aged 65 years and younger, concomitant opioid use, ECOG 2 (Weeks 9 and 12), BMI≤18.5",statistically significant improvement
same,"Simplified Evaluation of Fatigue (SEF), change from baseline, subgroup",[6]; concomitant opioid use,small trend of improvement
same,"Fatigue Domain of FACIT-F, change from baseline, subgroup","[6]; males, Week 3 to 6 (statistically significant at Week 9)",general improvement trend
same,"Fatigue Domain of FACIT-F, change from baseline, subgroup",[6]; no-concomitant opioid use,smaller overall improvement trend
same,Tolerability,[6]; [13],well tolerated
same,Percentage change from baseline in LBM,[6]; throughout the 12-week study,consistent improvement
same,"FACIT-F score (fatigue), change from baseline","[6]; week 9, 100 mg",0.33±0.9
same,"FACIT-F score (fatigue), change from baseline","[6]; week 12, 100 mg",0.48±1.0
same,Body weight,healthy subjects [7]; 50 mg dose (single or split dose) and 75 mg dose,significant increases
same,GH levels,"healthy subjects [7]; all doses (25, 50, 75 mg)",significantly increased
same,IGF-1 levels,"healthy subjects [7]; all doses (25, 50, 75 mg)",significantly increased
CC(=O)O[C@]1(C(C)=O)CC[C@H]2[C@@H]3C=C(C)C4=CC(=O)CC[C@]4(C)[C@H]3CC[C@@]21C [megestrol acetate],Quality of life in cancer cachexia patients,"[8]; 13 of 14 studies no significant difference vs placebo, dronabinol, eicosapentaenoic acid or glucocorticosteroids",has not been shown to improve
same,Body weight and water,"[8]; human, in vivo",only been shown to increase body weight and water
same,Fat mass or lean body mass,"[8]; human, in vivo",does not improve
COc1ccc2[nH]cc(CCNC(C)=O)c2c1 [melatonin],"Weight, body composition (including fat-free mass), symptom scores, quality-of-life outcomes (FACIT-F and FAACT) vs placebo",[9],No differences
